Experimental data: US20240384350A1, “METHODS OF TREATING CANCER WITH KINASE INHIBITORS” (BOARD OF REGENTS, THE UNIVERSITY OF TEXAS SYSTEM, priority 2021, published 2024)

Columns and labels:
Test in all cases: Ba/F3 drug screening, Cell Titer Glo, IC50 Mut/WT
Format in all cases: cell-based
EGFR L833F = biological target: T1, EGFR L833F (Homo sapiens, UniProt P00533, L833F); conditions: Classical-Like, 72 hours
T1 construct: expressed in transfected cells; host or cells: Ba/F3 cells, retroviral pBabe-Puro vector

EGFR L833V = biological target: T2, EGFR L833V (Homo sapiens, UniProt P00533, L833V); conditions: Classical-Like, 72 hours
T2 construct: expressed in transfected cells; host or cells: Ba/F3 cells, retroviral pBabe-Puro vector

EGFR L858R S784F = biological target: T3, EGFR L858R S784F (Homo sapiens, UniProt P00533, L858R/S784F); conditions: Classical-Like, 72 hours
T3 construct: expressed in transfected cells; host or cells: Ba/F3 cells, retroviral pBabe-Puro vector (vector made by GeneScript from EGFR L858R)

EGFR S811F = biological target: T4, EGFR S811F (Homo sapiens, UniProt P00533, S811F); conditions: Classical-Like, 72 hours
T4 construct: expressed in transfected cells; host or cells: Ba/F3 cells, retroviral pBabe-Puro vector (vector made by GeneScript from EGFR WT)

EGFR A767insASV = biological target: T5, EGFR A767insASV (Homo sapiens, UniProt P00533, DUP767-769); conditions: Ex20, 72 hours
T5 construct: expressed in transfected cells; host or cells: Ba/F3 cells, retroviral pBabe-Puro vector
Description: (§1) Data represent the ratio of the IC50 value for a given TKI for cells with an ex20ins EGFR mutation to the IC50 value for cells with wildtype EGFR.
(§2) Ba/F3 cell generation, drug screening, and IC50 approximations. Ba/F3 cells were obtained as a gift from Dr. Gordon Mills (MD Anderson Cancer Center), and maintained in RPMI (Sigma) containing 10% FBS, 1% penicillin/streptomycin, and 10 ng/ml recombinant mIL-3 (R&D Biosystems). To establish stable Ba/F3 cell lines, Ba/F3 cells were transduced with retroviruses containing mutant EGFR plasmids for 12-24 hours.
(§3) After 48-72 hours of transduction, 2 μg/ml puromycin (Invitrogen) was added to Ba/F3 cell lines in complete RPMI. To select for EGFR positive cell lines, cells were stained with PE-EGFR (Biolegend) and sorted by FACS. After sorting, EGFR positive cells were maintained in RPMI containing 10% FBS, 1% penicillin/streptomycin, and 1 ng/ml EGF to support cell viability. Drug screening was performed as previously described^41,42. Shortly, cells were plated in 384-well plates (Greiner Bio-One) at 2000-3000 cells per well in technical triplicate. Seven different concentrations of TKIs or DMSO vehicle were added to reach a final volume of 40 μL per well. After 72 hours, 11 μL of Cell Titer Glo (Promega) was added to each well. Plates were incubated for a minimum of 10 minutes, and bioluminescence was determined using a FLUOstar OPTIMA plate reader (BMG LABTECH). Raw bioluminescence values were normalized to DMSO control treated cells, and values were plotted in GraphPad Prism. […] Drug screens were performed in technical triplicate on each plate and either duplicate or triplicate biological replicates. […] Statistical differences between groups were determined by ANOVA as described in the figure legends.

EGFR D770insNPG = biological target: T6, EGFR D770insNPG (Homo sapiens, UniProt P00533, INS770NPG); conditions: Ex20, 72 hours
T6 construct: expressed in transfected cells; host or cells: Ba/F3 cells, retroviral pBabe-Puro vector

EGFR H773insNPH = biological target: T7, EGFR H773insNPH (Homo sapiens, UniProt P00533, INS773NPH); conditions: Ex20, 72 hours
T7 construct: expressed in transfected cells; host or cells: Ba/F3 cells, retroviral pBabe-Puro vector
Description: as §1, §2, §3

[1] = biological target: T8, EGFR L747_K754del insATSPE (Homo sapiens, UniProt P00533, DEL747-749/K754E); conditions: T790M-like-3S, 72 hours
T8 construct: expressed in transfected cells; host or cells: Ba/F3 cells, retroviral pBabe-Puro vector

EGFR S768I/T790M = biological target: T9, EGFR S768I/T790M (Homo sapiens, UniProt P00533, S768I/T790M); conditions: T790M-like-3S, 72 hours
T9 construct: expressed in transfected cells; host or cells: Ba/F3

EGFR L858R T790M V843I = biological target: T10, EGFR L858R T790M V843I (Homo sapiens, UniProt P00533, L858R/T790M/V843I); conditions: T790M-like-3S, 72 hours
T10 construct: expressed in transfected cells; host or cells: Ba/F3

EGFR Ex19del/T790M/G724S = biological target: T11, EGFR Ex19del/T790M/G724S (Homo sapiens, UniProt P00533, DEL746-750/G724S/T790M); conditions: T790M-like-3S, 72 hours
T11 construct: expressed in transfected cells; host or cells: Ba/F3

EGFR L718Q T790M = biological target: T12, EGFR L718Q T790M (Homo sapiens, UniProt P00533, L718Q/T790M); conditions: T790M-like-3R, 72 hours
T12 construct: expressed in transfected cells; host or cells: Ba/F3

EGFR L858R/T790M/L718Q = biological target: T13, EGFR L858R/T790M/L718Q (Homo sapiens, UniProt P00533, L718Q/L858R/T790M); conditions: T790M-like-3R, 72 hours
T13 construct: expressed in transfected cells; host or cells: Ba/F3
Description: (§4) Data represent the ratio of the IC50 value for a given TKI for cells with a T790M-like-3R EGFR mutation to the IC50 value for cells with wildtype EGFR.
as §2
(§5) After 48-72 hours of transduction, 2 μg/ml puromycin (Invitrogen) was added to Ba/F3 cell lines in complete RPMI. To select for EGFR positive cell lines, cells were stained with PE-EGFR (Biolegend) and sorted by FACS. After sorting, EGFR positive cells were maintained in RPMI containing 10% FBS, 1% penicillin/streptomycin, and 1 ng/ml EGF to support cell viability. […] Shortly, cells were plated in 384-well plates (Greiner Bio-One) at 2000-3000 cells per well in technical triplicate. Seven different concentrations of TKIs or DMSO vehicle were added to reach a final volume of 40 μL per well. After 72 hours, 11 μL of Cell Titer Glo (Promega) was added to each well. Plates were incubated for a minimum of 10 minutes, and bioluminescence was determined using a FLUOstar OPTIMA plate reader (BMG LABTECH). Raw bioluminescence values were normalized to DMSO control treated cells, and values were plotted in GraphPad Prism. […] Drug screens were performed in technical triplicate on each plate and either duplicate or triplicate biological replicates. […] Statistical differences between groups were determined by ANOVA as described in the figure legends.

EGFR L858R T790M L718V = biological target: T14, EGFR L858R T790M L718V (Homo sapiens, UniProt P00533, L718V/L858R/T790M); conditions: T790M-like-3R, 72 hours
T14 construct: expressed in transfected cells; host or cells: Ba/F3
Description: as §4, §2, §5

EGFR E709A G719S = biological target: T15, EGFR E709A G719S (Homo sapiens, UniProt P00533, E709A/G719S); conditions: PACC; E709A G719S; Ba/F3; 72 hours
T15 construct: expressed in transfected cells; host or cells: Ba/F3

EGFR L718Q = biological target: T16, EGFR L718Q (Homo sapiens, UniProt P00533, L718Q); conditions: PACC; L718Q; Ba/F3; 72 hours
T16 construct: expressed in transfected cells; host or cells: Ba/F3
Description: (§6) Data represent the ratio of the IC50 value for a given TKI for cells with a PACC EGFR mutation to the IC50 value for cells with wildtype EGFR.
as §2
(§7) After 48-72 hours of transduction, 2 μg/ml puromycin (Invitrogen) was added to Ba/F3 cell lines in complete RPMI. To select for EGFR positive cell lines, cells were stained with PE-EGFR (Biolegend) and sorted by FACS. After sorting, EGFR positive cells were maintained in RPMI containing 10% FBS, 1% penicillin/streptomycin, and 1 ng/ml EGF to support cell viability. Drug screening was performed as previously described^41,42. Shortly, cells were plated in 384-well plates (Greiner Bio-One) at 2000-3000 cells per well in technical triplicate. Seven different concentrations of TKIs or DMSO vehicle were added to reach a final volume of 40 μL per well. After 72 hours, 11 μL of Cell Titer Glo (Promega) was added to each well. Plates were incubated for a minimum of 10 minutes, and bioluminescence was determined using a FLUOstar OPTIMA plate reader (BMG LABTECH). Raw bioluminescence values were normalized to DMSO control treated cells, and values were plotted in GraphPad Prism. […] Drug screens were performed in technical triplicate on each plate and either duplicate or triplicate biological replicates.

EGFR K757R = biological target: T17, EGFR K757R (Homo sapiens, UniProt P00533, K757R); conditions: PACC; K757R; Ba/F3; 72 hours
T17 construct: expressed in transfected cells; host or cells: Ba/F3
Description: as §6, §2, §3

EGFR S768I = biological target: T18, EGFR S768I (Homo sapiens, UniProt P00533, S768I); conditions: PACC; S768I; Ba/F3; 72 hours
T18 construct: expressed in transfected cells; host or cells: Ba/F3

EGFR V769L = biological target: T19, EGFR V769L (Homo sapiens, UniProt P00533, V769L); conditions: PACC; V769L; Ba/F3; 72 hours
T19 construct: expressed in transfected cells; host or cells: Ba/F3

EGFR V774M = biological target: T20, EGFR V774M (Homo sapiens, UniProt P00533, V774M); conditions: PACC; V774M; Ba/F3; 72 hours
T20 construct: host or cells: Ba/F3

EGFR R776H = biological target: T21, EGFR R776H (Homo sapiens, UniProt P00533, R776H); conditions: PACC; R776H; Ba/F3; 72 hours
T21 construct: host or cells: Ba/F3

EGFR R776C = biological target: T22, EGFR R776C (Homo sapiens, UniProt P00533, R776C); conditions: PACC; R776C; Ba/F3; 72 hours
T22 construct: host or cells: Ba/F3
Description: as §6, §2, §7

EGFR L858R L718Q = biological target: T23, EGFR L858R L718Q (Homo sapiens, UniProt P00533, L718Q/L858R); conditions: PACC; L858R L718Q; Ba/F3; 72 hours
T23 construct: host or cells: Ba/F3
Description: as §6, §2, §7

EGFR Ex19del/L792H = biological target: T24, EGFR Ex19del/L792H (Homo sapiens, UniProt P00533, DEL746-750/L792H); conditions: PACC; Ex19del/L792H; Ba/F3; 72 hours
T24 construct: expressed in transfected cells; host or cells: Ba/F3
Description: as §6, §2, §7

EGFR L858R G724S = biological target: T25, EGFR L858R G724S (Homo sapiens, UniProt P00533, G724S/L858R); conditions: PACC; L858R G724S; Ba/F3; 72 hours
T25 construct: expressed in transfected cells; host or cells: Ba/F3 (retroviral transduction, pBabe-Puro based vectors)
Description: as §6, §2, §7

EGFR Ex19del T854I = biological target: T26, EGFR Ex19del T854I (Homo sapiens, UniProt P00533, DEL746-750/T854I); conditions: PACC; Ex19del T854I; Ba/F3; 72 hours
T26 construct: expressed in transfected cells; host or cells: Ba/F3 (retroviral transduction, pBabe-Puro based vectors)

## CN(C)C/C=C/C(=O)Nc1cc2c(Nc3ccc(Cl)c(Br)c3)ncnc2cn1 [Tarlox-TKI]
EGFR L833F
  ratio of IC50 for cells with mutant EGFR to IC50 for cells with wildtype EGFR (Mut/WT): 0.07887
EGFR L833V
  ratio of IC50 for cells with mutant EGFR to IC50 for cells with wildtype EGFR (Mut/WT): 0.003152
EGFR L858R S784F
  ratio of IC50 for cells with mutant EGFR to IC50 for cells with wildtype EGFR (Mut/WT): 0.001643
EGFR S811F
  ratio of IC50 for cells with mutant EGFR to IC50 for cells with wildtype EGFR (Mut/WT): 0.1118
EGFR A767insASV
  ratio of IC50 for cells with mutant EGFR to IC50 for cells with wildtype EGFR (Mut/WT): 0.9945
EGFR D770insNPG
  ratio of IC50 for cells with mutant EGFR to IC50 for cells with wildtype EGFR (Mut/WT): 5.023
EGFR H773insNPH
  ratio of IC50 for cells with mutant EGFR to IC50 for cells with wildtype EGFR (Mut/WT): 11.56
[1]
  ratio of IC50 for cells with mutant EGFR to IC50 for cells with wildtype EGFR (Mut/WT): 4.874
EGFR S768I/T790M
  ratio of IC50 for cells with mutant EGFR to IC50 for cells with wildtype EGFR (Mut/WT): 60.19
EGFR L858R T790M V843I
  ratio of IC50 for cells with mutant EGFR to IC50 for cells with wildtype EGFR (Mut/WT): 70.97
EGFR Ex19del/T790M/G724S
  ratio of IC50 for cells with mutant EGFR to IC50 for cells with wildtype EGFR (Mut/WT): 4.197
EGFR L718Q T790M
  ratio of IC50 for cells with mutant EGFR to IC50 for cells with wildtype EGFR (Mut/WT): 16.46
EGFR L858R/T790M/L718Q
  ratio of IC50 for cells with mutant EGFR to IC50 for cells with wildtype EGFR (Mut/WT): 304.5
EGFR L858R T790M L718V
  ratio of IC50 for cells with mutant EGFR to IC50 for cells with wildtype EGFR (Mut/WT): 151.6
EGFR E709A G719S
  ratio of IC50 for cells with mutant EGFR to IC50 for cells with wildtype EGFR (Mut/WT): 0.1143
EGFR L718Q
  ratio of IC50 for cells with mutant EGFR to IC50 for cells with wildtype EGFR (Mut/WT): 0.06989
EGFR K757R
  ratio of IC50 for cells with mutant EGFR to IC50 for cells with wildtype EGFR (Mut/WT): 0.3019
EGFR S768I
  ratio of IC50 for cells with mutant EGFR to IC50 for cells with wildtype EGFR (Mut/WT): 0.3863
EGFR V769L
  ratio of IC50 for cells with mutant EGFR to IC50 for cells with wildtype EGFR (Mut/WT): 0.3024
EGFR V774M
  ratio of IC50 for cells with mutant EGFR to IC50 for cells with wildtype EGFR (Mut/WT): 0.2507
EGFR R776H
  ratio of IC50 for cells with mutant EGFR to IC50 for cells with wildtype EGFR (Mut/WT): 0.1639
EGFR R776C
  ratio of IC50 for cells with mutant EGFR to IC50 for cells with wildtype EGFR (Mut/WT): 0.02009
EGFR L858R L718Q
  ratio of IC50 for cells with mutant EGFR to IC50 for cells with wildtype EGFR (Mut/WT): 0.3655
EGFR Ex19del/L792H
  ratio of IC50 for cells with mutant EGFR to IC50 for cells with wildtype EGFR (Mut/WT): 1.041
EGFR L858R G724S
  ratio of IC50 for cells with mutant EGFR to IC50 for cells with wildtype EGFR (Mut/WT): 0.02628
EGFR Ex19del T854I
  ratio of IC50 for cells with mutant EGFR to IC50 for cells with wildtype EGFR (Mut/WT): 0.7019
